Experimental data reported in ChEMBL document CHEMBL1127588, “A structure-activity relationship study of benzylic modifications of 4-[1-(1-naphthyl)ethyl]-1H-imidazoles on alpha 1- and alpha 2-adrenergic receptors” (J Med Chem, 1994).

Experiments:
[1] = molecular target: T1, Adrenergic receptor alpha-2 (Rattus norvegicus, UniProt P22086+P19328+P22909); assay: Tested for its binding affinity against alpha-2 receptor in rat brain membrane; assay type: cell membranes
T1 sequence (P22086 whole entry): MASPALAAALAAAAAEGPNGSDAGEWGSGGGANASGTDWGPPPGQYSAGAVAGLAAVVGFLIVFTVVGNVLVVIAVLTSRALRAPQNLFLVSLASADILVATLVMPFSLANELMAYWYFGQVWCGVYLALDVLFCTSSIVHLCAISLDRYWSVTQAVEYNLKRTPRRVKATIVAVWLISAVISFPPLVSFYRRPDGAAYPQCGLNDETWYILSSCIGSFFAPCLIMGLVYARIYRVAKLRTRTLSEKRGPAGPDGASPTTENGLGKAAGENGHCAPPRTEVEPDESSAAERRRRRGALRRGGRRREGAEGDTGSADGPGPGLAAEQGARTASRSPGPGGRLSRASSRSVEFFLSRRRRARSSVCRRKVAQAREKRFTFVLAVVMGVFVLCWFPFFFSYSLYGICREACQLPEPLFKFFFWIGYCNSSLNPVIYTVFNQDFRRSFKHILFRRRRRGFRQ
T1 sequence (P19328 whole entry): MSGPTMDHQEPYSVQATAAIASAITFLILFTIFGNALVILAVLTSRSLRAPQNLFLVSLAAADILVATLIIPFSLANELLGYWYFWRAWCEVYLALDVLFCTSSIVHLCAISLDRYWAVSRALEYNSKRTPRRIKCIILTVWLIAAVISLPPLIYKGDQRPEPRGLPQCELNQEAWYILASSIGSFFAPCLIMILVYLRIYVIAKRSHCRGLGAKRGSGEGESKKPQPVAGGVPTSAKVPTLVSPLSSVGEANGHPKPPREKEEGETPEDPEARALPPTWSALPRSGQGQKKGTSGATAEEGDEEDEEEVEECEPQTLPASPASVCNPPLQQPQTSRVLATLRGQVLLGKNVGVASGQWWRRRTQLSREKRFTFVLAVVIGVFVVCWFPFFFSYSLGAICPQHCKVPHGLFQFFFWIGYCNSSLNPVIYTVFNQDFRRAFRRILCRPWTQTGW
T1 sequence (P22909 whole entry): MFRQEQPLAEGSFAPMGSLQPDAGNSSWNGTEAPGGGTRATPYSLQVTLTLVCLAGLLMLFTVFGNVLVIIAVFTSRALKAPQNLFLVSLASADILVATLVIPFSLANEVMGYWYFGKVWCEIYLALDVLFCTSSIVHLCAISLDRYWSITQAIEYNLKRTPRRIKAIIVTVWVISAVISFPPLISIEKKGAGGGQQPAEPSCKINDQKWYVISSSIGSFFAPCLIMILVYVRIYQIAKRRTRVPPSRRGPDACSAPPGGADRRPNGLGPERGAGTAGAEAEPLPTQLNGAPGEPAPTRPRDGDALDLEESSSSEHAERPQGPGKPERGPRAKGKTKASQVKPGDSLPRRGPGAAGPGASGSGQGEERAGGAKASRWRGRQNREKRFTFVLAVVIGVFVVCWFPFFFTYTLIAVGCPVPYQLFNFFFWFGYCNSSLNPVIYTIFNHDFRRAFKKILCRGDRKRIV

[2] = molecular target: T2, Adrenergic receptor alpha-1 (Rattus norvegicus, UniProt P15823+P23944+P43140); assay: Tested for its binding affinity against alpha-1 receptor in rat brain membrane; assay type: cell membranes
T2 sequence (P15823 whole entry): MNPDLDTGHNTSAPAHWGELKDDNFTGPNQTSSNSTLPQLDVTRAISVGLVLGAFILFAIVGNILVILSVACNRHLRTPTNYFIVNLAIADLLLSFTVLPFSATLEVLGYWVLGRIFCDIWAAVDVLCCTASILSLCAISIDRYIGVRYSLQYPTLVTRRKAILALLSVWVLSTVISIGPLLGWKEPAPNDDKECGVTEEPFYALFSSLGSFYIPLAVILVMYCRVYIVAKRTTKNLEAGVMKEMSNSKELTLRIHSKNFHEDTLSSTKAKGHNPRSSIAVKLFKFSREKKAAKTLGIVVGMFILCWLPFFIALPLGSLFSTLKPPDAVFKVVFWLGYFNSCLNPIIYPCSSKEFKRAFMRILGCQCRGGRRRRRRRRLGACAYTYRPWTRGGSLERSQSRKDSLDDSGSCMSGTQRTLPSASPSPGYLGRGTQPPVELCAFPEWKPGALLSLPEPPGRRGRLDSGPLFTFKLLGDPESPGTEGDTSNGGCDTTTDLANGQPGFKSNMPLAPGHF
T2 sequence (P23944 whole entry): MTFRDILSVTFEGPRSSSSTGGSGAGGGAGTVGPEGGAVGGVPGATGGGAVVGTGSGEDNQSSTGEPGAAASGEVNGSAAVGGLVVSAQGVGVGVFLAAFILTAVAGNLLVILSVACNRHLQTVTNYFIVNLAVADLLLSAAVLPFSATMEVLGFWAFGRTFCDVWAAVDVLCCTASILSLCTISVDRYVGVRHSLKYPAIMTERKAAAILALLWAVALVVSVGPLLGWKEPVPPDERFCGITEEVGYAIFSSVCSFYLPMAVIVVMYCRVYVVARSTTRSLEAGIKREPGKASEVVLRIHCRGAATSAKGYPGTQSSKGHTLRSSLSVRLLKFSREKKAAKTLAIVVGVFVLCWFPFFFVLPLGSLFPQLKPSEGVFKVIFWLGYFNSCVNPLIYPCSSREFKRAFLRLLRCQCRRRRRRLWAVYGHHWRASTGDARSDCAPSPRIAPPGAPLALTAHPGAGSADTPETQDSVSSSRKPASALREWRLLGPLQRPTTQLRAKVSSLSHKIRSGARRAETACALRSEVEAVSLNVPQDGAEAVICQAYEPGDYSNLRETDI
T2 sequence (P43140 whole entry): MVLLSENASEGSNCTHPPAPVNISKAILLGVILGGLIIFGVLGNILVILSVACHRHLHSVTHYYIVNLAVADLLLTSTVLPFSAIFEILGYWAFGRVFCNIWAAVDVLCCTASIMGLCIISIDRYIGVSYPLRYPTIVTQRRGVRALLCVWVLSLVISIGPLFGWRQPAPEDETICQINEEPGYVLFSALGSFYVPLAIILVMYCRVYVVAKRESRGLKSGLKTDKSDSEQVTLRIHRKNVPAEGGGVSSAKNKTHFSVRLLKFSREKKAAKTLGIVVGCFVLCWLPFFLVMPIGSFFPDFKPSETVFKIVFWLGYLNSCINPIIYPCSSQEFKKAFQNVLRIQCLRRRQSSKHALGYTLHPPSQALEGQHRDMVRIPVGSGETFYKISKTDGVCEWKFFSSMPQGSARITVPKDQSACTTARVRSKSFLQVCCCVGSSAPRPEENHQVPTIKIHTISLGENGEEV

[3] = Ratio between IC50 values of alpha 1 and alpha 2 receptors
[4] = molecular target: Adrenergic receptor alpha (Rattus norvegicus) (UniProt P15823+P23944+P43140+P22086+P19328+P22909); assay: Ratio between EC50 values of alpha 1 and alpha 2 receptors; assay type: protein assay

Cl.OC(c1c[nH]cn1)(c1cccc2ccccc12)C(F)(F)F (stereo unspecified)
Ki [1]: > 24.539 µM | Ki [2]: > 50 µM | Ratio [3]: > 2

O=C(O)C(=O)O.O=C(c1c[nH]cn1)c1cccc2ccccc12
Ki [1]: 31.754 µM | Ki [2]: 15.902 µM | Ratio [3]: 0.5

CC(c1c[nH]cn1)c1cccc2ccccc12 (stereo in doubt; S-(-)-2)
Ratio [3]: 22.3

CC(c1c[nH]cn1)c1cccc2ccccc12 (stereo in doubt; S-(+)-2)
Ratio [4]: 752 | Ratio [3]: 41.9

CC(c1c[nH]cn1)c1cccc2ccccc12 (stereo in doubt; 2)
Ratio [4]: 643 | Ratio [3]: 18.2
